Assay results taken from US20210040118A1, “IMMUNOMODULATORS, COMPOSITIONS AND METHODS THEREOF” (BETTA PHARMACEUTICALS CO., LTD, priority 2018, published 2021).

Biological target: T1, PD-1/PD-L1 (Homo sapiens, UniProt Q9NZQ7)
T1 construct: Recombinant human PD-L1 protein (19-238) with a His-tag at the C-terminus; purchased AcroBiosystems PD1-H5229 (PD-L1); PD1-H5257 (PD-1)
Assay: PD-1/PD-L1 homogenous time-resolved fluorescence (HTRF) binding assay
Conditions: recombinant human PD-L1 (19-238) His-tag / human PD-1 (25-167) Fc tag, class symbols
How it was run: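 HTRF binding of human PD-1 (25-167, Fc-tagged) at 3 nM and PD-L1 (19-238, His-tagged) at 10 nM, preincubated 40 min with inhibitor in PBS pH 7.4, 0.05% Tween-20, 0.1% BSA, 1% DMSO, 25°C. Eu anti-IgG (1 nM) and anti-His-APC (20 nM) added, 60 min; 665/620 nm ratio; IC50 from curve fit.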

T1 sequence (Q9NZQ7 19-238): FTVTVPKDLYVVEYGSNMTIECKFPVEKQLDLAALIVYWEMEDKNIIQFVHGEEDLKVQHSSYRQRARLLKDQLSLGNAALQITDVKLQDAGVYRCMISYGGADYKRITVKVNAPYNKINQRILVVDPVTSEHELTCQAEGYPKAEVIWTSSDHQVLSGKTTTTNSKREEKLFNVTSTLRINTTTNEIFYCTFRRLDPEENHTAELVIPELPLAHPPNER

| IC50 [nM] | Structure (SMILES) |
| --- | --- |
| < 25 | Cc1c(Nc2nccc3cc(CNCC(=O)O)cnc23)cccc1-c1cccc(Nc2nccc3cc(CN4CCC4)cnc23)c1C [Example 149, ((8-((3′-((3-(azetidin-1-ylmethyl)-1,7-naphthyridin-8-yl)amino)-2,2′-dimethyl-[1,1′-biphenyl]-3-yl)amino)-1,7-naphthyridin-3-yl)methyl)glycine] |
| < 25 | Cc1c(Nc2nccc3cc(CN4CC(O)C4)cnc23)cccc1-c1cccc(Nc2nccc3cc(CN4CC(O)C4)cnc23)c1C [Example 150, 1,1′-((((2,2′-dimethyl-[1,1′-biphenyl]-3,3′-diyl)bis(azanediyl))bis(1,7-naphthyridine-8,3-diyl))bis(methylene))bis(azetidin-3-ol)] |
| < 25 | Cc1c(Nc2nccc3cc(CN4CCOCC4)cnc23)cccc1-c1cccc(Nc2nccc3cc(CN4CCOCC4)cnc23)c1C [Example 151, 2,2′-dimethyl-N3,N3′-bis(3-(morpholinomethyl)-1,7-naphthyridin-8-yl)-[1,1′-biphenyl]-3,3′-diamine] |
| < 25 | CC(=O)NCCNCc1cnc2c(Nc3cccc(-c4cccc(Nc5nccc6cc(CNCCNC(C)=O)cnc56)c4C)c3C)nccc2c1 [Example 152, N,N′-((((((2,2′-dimethyl-[1,1′-biphenyl]-3,3′-diyl)bis(azanediyl))bis(1,7-naphthyridine-8,3-diyl))bis(methylene))bis(azanediyl))bis(ethane-2,1-diyl))diacetamide] |
| < 25 | Cc1c(Nc2nccc3cc(CN4CC[C@H](N(C)C)C4)cnc23)cccc1-c1cccc(Nc2nccc3cc(CN4CC[C@H](N(C)C)C4)cnc23)c1C [Example 153, N3,N3′-bis(3-(((S)-3-(dimethylamino)pyrrolidin-1-yl)methyl)-1,7-naphthyridin-8-yl)-2,2′-dimethyl-[1,1′-biphenyl]-3,3′-diamine] |
| < 25 | Cc1c(Nc2nccc3cc(CNCC(=O)O)cnc23)cccc1-c1cccc(Nc2nccc3cc(CN4CC[C@H](N(C)C)C4)cnc23)c1C [Example 154, (S)-((8-((3′-((3-((3-(dimethylamino)pyrrolidin-1-yl)methyl)-1,7-naphthyridin-8-yl)amino)-2,2′-dimethyl-[1,1′-biphenyl]-3-yl)amino)-1,7-naphthyridin-3-yl)methyl)glycine] |
| < 25 | Cc1c(Nc2nccc3cc(CN4CCCCC4C(=O)O)cnc23)cccc1-c1cccc(Nc2nccc3cc(CN4CCCCC4C(=O)O)cnc23)c1C (centres unmarked) [Example 155, 1,1′-((((2,2′-dimethyl-[1,1′-biphenyl]-3,3′-diyl)bis(azanediyl))bis(1,7-naphthyridine-8,3-diyl))bis(methylene))bis(piperidine-2-carboxylic acid)] |
| < 25 | Cc1c(Nc2nccc3cc(CNCCO)cnc23)cccc1-c1cccc(Nc2nccc3cc(CNCC(F)(F)F)cnc23)c1C [Example 156, 2-(((8-((2,2′-dimethyl-3′-((3-(((2,2,2-trifluoroethyl)amino)methyl)-1,7-naphthyridin-8-yl)amino)-[1,1′-biphenyl]-3-yl)amino)-1,7-naphthyridin-3-yl)methyl)amino)ethan-1-ol] |
| < 25 | Cc1c(Nc2nccc3cc(CNC4([C@H](C)O)CC4)cnc23)cccc1-c1cccc(Nc2nccc3cc(CNC4([C@H](C)O)CC4)cnc23)c1C [Example 157, (1S,1'S)-1,1′-((((((2,2′-dimethyl-[1,1′-biphenyl]-3,3′-diyl)bis(azanediyl))bis(1,7-naphthyridine-8,3-diyl))bis(methylene))bis(azanediyl))bis(cyclopropane-1,1-diyl))bis(ethan-1-ol)] |
| < 25 | COC(=O)NCCNCc1cnc2c(Nc3cccc(-c4cccc(Nc5nccc6cc(CNCCNC(=O)OC)cnc56)c4C)c3C)nccc2c1 [Example 158, dimethyl ((((((2,2′-dimethyl-[1,1′-biphenyl]-3,3′-diyl)bis(azanediyl))bis(1,7-naphthyridine-8,3-diyl))bis(methylene))bis(azanediyl))bis(ethane-2,1-diyl))dicarbamate] |
| < 25 | COC(=O)NCCNCc1cnc2c(Nc3cccc(-c4cccc5c4CCN5C(=O)C4=NC5CCN(CC(=O)O)CC5S4)c3C)nccc2c1 (centres unmarked) [Example 159, 2-(2-(4-(3-((3-(((2-((methoxycarbonyl)amino)ethyl)amino)methyl)-1,7-naphthyridin-8-yl)amino)-2-methylphenyl)indoline-1-carbonyl)-3a,6,7,7a-tetrahydrothiazolo[5,4-c]pyridin-5(4H)-yl)acetic acid] |
| < 25 | Cc1c(Nc2nccc3cc(CNCC(=O)O)cnc23)cccc1-c1cccc2c1CCN2C(=O)C1=NC2CCN(CC(=O)O)CC2S1 (centres unmarked) [Example 160, ((8-((3-(1-(5-(carboxymethyl)-3a,4,5,6,7,7a-hexahydrothiazolo[5,4-c]pyridine-2-carbonyl)indolin-4-yl)-2-methylphenyl)amino)-1,7-naphthyridin-3-yl)methyl)glycine] |
| < 25 | Cc1c(Nc2nccc3cc(CNCC(=O)O)cnc23)cccc1-c1cccc2c1CCN2C(=O)C1=NC2CCN(CCC(=O)O)CC2S1 (centres unmarked) [Example 161, 3-(2-(4-(3-((3-(((carboxymethyl)amino)methyl)-1,7-naphthyridin-8-yl)amino)-2-methylphenyl)indoline-1-carbonyl)-3a,6,7,7a-tetrahydrothiazolo[5,4-c]pyridin-5(4H)-yl)propanoic acid] |
| < 25 | Cc1c(Nc2nccc3cc(CNCCO)cnc23)cccc1-c1cccc2c1CCN2C(=O)C1=NC2CCN(CCC(=O)O)CC2S1 (centres unmarked) [Example 162, 3-(2-(4-(3-((3-(((2-hydroxyethyl)amino)methyl)-1,7-naphthyridin-8-yl)amino)-2-methylphenyl)indoline-1-carbonyl)-3a,6,7,7a-tetrahydrothiazolo[5,4-c]pyridin-5(4H)-yl)propanoic acid] |
| < 25 | Cc1c(Nc2nccc3cc(CN[C@@H](C)C(=O)O)cnc23)cccc1-c1cccc2c1CCN2C(=O)C1=NC2CCN(CC(=O)O)CC2S1 (some centres unmarked) [Example 163, ((8-((3-(1-(5-(carboxymethyl)-3a,4,5,6,7,7a-hexahydrothiazolo[5,4-c]pyridine-2-carbonyl)indolin-4-yl)-2-methylphenyl)amino)-1,7-naphthyridin-3-yl)methyl)alanine] |
| < 25 | Cc1c(Nc2nccc3cc(CNCC(N)=O)cnc23)cccc1-c1cccc2c1CCN2C(=O)C1=NC2CCN(CC(=O)O)CC2S1 (centres unmarked) [Example 164, 2-(2-(4-(3-((3-(((2-amino-2-oxoethyl)amino)methyl)-1,7-naphthyridin-8-yl)amino)-2-methylphenyl)indoline-1-carbonyl)-3a,6,7,7a-tetrahydrothiazolo[5,4-c]pyridin-5(4H)-yl)acetic acid] |
| < 25 | Cc1c(Nc2nccc3cc(CNCC(=O)N(C)C)cnc23)cccc1-c1cccc2c1CCN2C(=O)C1=NC2CCN(CC(=O)O)CC2S1 (centres unmarked) [Example 165, 2-(2-(4-(3-((3-(((2-(dimethylamino)-2-oxoethyl)amino)methyl)-1,7-naphthyridin-8-yl)amino)-2-methylphenyl)indoline-1-carbonyl)-3a,6,7,7a-tetrahydrothiazolo[5,4-c]pyridin-5(4H)-yl)acetic acid] |
| < 25 | Cc1c(Nc2nccc3cc(CNCC(=O)N(C)CCO)cnc23)cccc1-c1cccc2c1CCN2C(=O)C1=NC2CCN(CC(=O)O)CC2S1 (centres unmarked) [Example 166, 2-(2-(4-(3-((3-(((2-((2-hydroxyethyl)(methyl)amino)-2-oxoethyl)amino)methyl)-1,7-naphthyridin-8-yl)amino)-2-methylphenyl)indoline-1-carbonyl)-3a,6,7,7a-tetrahydrothiazolo[5,4-c]pyridin-5(4H)-yl)acetic acid] |
| < 25 | Cc1c(NC(=O)c2ccc3c(n2)CCNC3)cccc1-c1cccc(NC(=O)c2ccc3c(n2)CCNC3)c1C [Example 167, N,N′-(2,2′-dimethyl-[1,1′-biphenyl]-3,3′-diyl)bis(5,6,7,8-tetrahydro-1,6-naphthyridine-2-carboxamide)] |
| < 25 | COC(=O)N[C@H](C(=O)N1CCc2nc(C(=O)N3CCc4c(-c5cccc6c5CCN6C(=O)c5ccc6c(n5)CCN(C(=O)[C@@H](NC(=O)OC)C(C)C)C6)cccc43)ccc2C1)C(C)C [Example 168, dimethyl ((2S,2'S)-(([4,4′-biindoline]-1,1′-dicarbonyl)bis(7,8-dihydro-1,6-naphthyridine-2,6(5H)-diyl))bis(3-methyl-1-oxobutane-1,2-diyl))dicarbamate] |
| < 25 | COC(=O)N[C@H](C(=O)N1CCc2nc(C(=O)Nc3cccc(-c4cccc(NC(=O)c5ccc6c(n5)CCN(C(=O)[C@@H](NC(=O)OC)C(C)C)C6)c4C)c3C)ccc2C1)C(C)C [Example 169, dimethyl ((2S,2'S)-((((2,2′-dimethyl-[1,1′-biphenyl]-3,3′-diyl)bis(azanediyl))bis(carbonyl))bis(7,8-dihydro-1,6-naphthyridine-2,6(5H)-diyl))bis(3-methyl-1-oxobutane-1,2-diyl))dicarbamate] |
| < 25 | CCOC(=O)CN1CCc2nc(C(=O)Nc3cccc(-c4cccc(NC(=O)c5ccc6c(n5)CCNC6)c4C)c3C)ccc2C1 [Example 170, ethyl 2-(2-((2,2′-dimethyl-3′-(5,6,7,8-tetrahydro-1,6-naphthyridine-2-carboxamido)-[1,1′-biphenyl]-3-yl)carbamoyl)-7,8-dihydro-1,6-naphthyridin-6(5H)-yl)acetate] |
| 100 to 200 | Cc1c(NC(=O)c2ccc3c(n2)CCN(CC(=O)OC(C)(C)C)C3)cccc1-c1cccc(NC(=O)c2ccc3c(n2)CCN(CC(=O)OC(C)(C)C)C3)c1C [Example 172, di-tert-butyl 2,2′-((((2,2′-dimethyl-[1,1′-biphenyl]-3,3′-diyl)bis(azanediyl))bis(carbonyl))bis(7,8-dihydro-1,6-naphthyridine-2,6(5H)-diyl))diacetate] |
